Holding throughout (format): cell-based
Data set [1] has as its system BT-549. The data set is described as follows: MTT assay. The protocol: (§1) MTT assay: Cells were grown to log phase in their respective media, washed in PBS, trypsinized, and plated on 96-well plates at a density of 3,000-6,000 cells per well in 200 μL of complete media. Cells were allowed to recover for 18 hours and were then exposed to AgNPs for 48 or 72 hours. For NAC studies, cells were exposed to 4 mM NAC (Sigma Aldrich) diluted in growth media for 6 h prior to AgNP treatment. Media containing NAC was removed and replaced with media containing AgNPs. For induction of EMT, cells were exposed to 10 ng/ml TGF-β1 (R&D Systems) for 6 days at 37° C., prior to AgNP treatment. Media containing AgNPs were replaced with 200 μL of media containing 0.5 mg/mL MTT and incubated for 1 hour at 37° C. Medium was removed, and cells were lysed in 200 μL of DMSO and read using a Molecular Devices Emax Precision Microplate Reader at 560 nm and corrected for background at 650 nm.
ZEB1 Knockdown: BT549 cells were plated in 60mm tissue culture plates and allowed to grow to 80-90% confluence. Each plate was then transfected with a non-coding control shRNA plasmid, or a plasmid containing shRNA targeted against ZEB1. Knockdown constructs used in this study were obtained from Sigma Aldrich (Mission shRNA TRCN0000369267 and TRCN0000369266). Each plate was transfected using 1 μg plasmid in conjunction with Lipofectamine 2000 (Invitrogen) according to the manufacturer's protocol. The following day cells were reseeded and were maintained in medium containing puromycin (2 μg/ml). ZEB1 expression levels were verified using immunoblot prior to experimentation.
TNBC cell lines which can be further classified as the CLBC (MDA-MB-231, BT-549, SUM-159) or basal (BT-20, MDA-MB-468) molecular subtypes were tested, as were luminal A (MCF-7), HER-2+ (SKBR3), and non-cancerous breast (MCF-10A, 184B5, iMEC) cell lines (FIG. 2A). […] As with the 48 h treatment, the CLBC cell lines were the most sensitive to AgNPs following a 72 h treatment.
(§2) IC50 calculations were performed using the prism software. IC50 in Table II are shown in total NP (AgNP) concentration and silver (Ag) content. At least 3 independent experiments were conducted for each cell line.
BT549 claudin-low breast cancer cells were treated with either AgNPs or KRIBB11, an HSF1 inhibitor, independently and in combination. The treated cells were then assessed for cell viability by MTT assay (FIG. 17A).
BT549 claudin-low breast cancer cells were treated with either AgNPs or 17-DMAG, an HSP90 inhibitor, independently and in combination. Treated cells were then assessed for cell viability by MTT assay (FIG. 19A). […] Combination treatment of both AgNPs and […]
A general note: Tetrazolium dyes change colour on reduction, which living cells bring about.

The subject of data set [2] is MDA-MB-231. Briefly: MTT assay. The protocol:
as §1
As with the 48 h treatment, the CLBC cell lines were the most sensitive to AgNPs following a 72 h treatment.
as §2

The subject of data set [3] is PERK arm of the UPR in MDA-MB-231 cells. Briefly: Immunoblotting of PERK arm activation (p-eIF2α). Conditions: 4 h. As for the experimental part:
MDA-MB-231 cells were treated with 1 μM of the ER stress inducer, thapsigargin, 25 nM of the PERK inhibitor (PERKi), […], or the combination of thapsigargin and GSK2606414 for 4 h to verify the efficacy of the PERKi, GSK2606414. […] To further evaluate the role of ER stress in AgNP-induced cytotoxicity, MDA-MB-231 cells were treated with increasing doses of AgNPs alone or in combination with the PERKi, GSK2606414, for 48 h to determine if PERK inhibition provides protection against AgNP-induced cytotoxicity.
On the technique in general: Immunoblotting shows a protein as a band on a membrane.

In data set [4] the test system is BT-20. The data set is described as follows: MTT assay. The protocol:
as §1
TNBC cell lines which can be further classified as the CLBC (MDA-MB-231, BT-549, SUM-159) or basal (BT-20, MDA-MB-468) molecular subtypes were tested, as were luminal A (MCF-7), HER-2+ (SKBR3), and non-cancerous breast (MCF-10A, 184B5, iMEC) cell lines (FIG. 2A). […]
BT20 basal-like breast cancer cells were treated with either AgNPs or KRIBB11, an HSF1 inhibitor, independently and in combination. Treated cells were then assessed for cell viability by MTT assay (FIG. 18A).

Data set [5] relates to AgNP sensitive cell lines. Briefly: ROS detection with H2DCF-DA. The following applies: 24 h 10 mM NAC.

Regarding `CO[C@H]1/C=C\C=C(/C)C(=O)NC2=CC(=O)C(NCCN(C)C)=C(C[C@@H](C)C[C@H](OC)[C@H](O)[C@@H](C)/C=C(\C)[C@@H]1OC(N)=O)C2=O` [17-DMAG], in data set [1] (BT549, single agents), the “sensitivity to AgNPs versus HSP90 inhibition (dose reduction index)” value is listed as “equally sensitive”.
For `Cn1cc(-c2ccc3c(c2)CCN3C(=O)Cc2cccc(C(F)(F)F)c2)c2c(N)ncnc21` [GSK2606414], in data set [2] (MDA-MB-231, 48 h), the “viability, AgNPs alone vs in combination with the PERKi” value is recorded as “no significant difference in viability”. In data set [3] (MDA-MB-231, 25 nM PERKi + 1 μM thapsigargin), the “p-eIF2α expression, co-treatment with thapsigargin vs thapsigargin alone” value is “decreased p-eIF2α expression”.
On to `CNc1ccc([N+](=O)[O-])c(Nc2ccc3[nH]ncc3c2)n1` [KRIBB11], for which the “combination treatment with AgNPs (combination index)” value in data set [1] (BT549, AgNPs + HSF1 inhibitor) is on record as “synergistic response”; in data set [1] (BT549, AgNPs + HSP90 inhibitor), “additive response”; in data set [4] (BT20, AgNPs + HSF1 inhibitor), “synergistic response”. The “sensitivity to AgNPs versus HSF1 inhibition (dose reduction index)” value in data set [1] (BT549, single agents) was “equally sensitive”; in data set [4] (BT20, single agents), “marginally more sensitive to AgNPs”.
In the case of `CC(=O)N[C@@H](CS)C(=O)O` [NAC, N-acetylcysteine], the “effect of NAC pre-treatment on AgNP cytotoxicity” value in data set [2] (MDA-MB-231, 4 mM NAC 6 h before 48 h AgNP, Ag 15.625-62.5 μg/ml) is “significantly decreased cytotoxicity”; in data set [1] (BT-549, 4 mM NAC 6 h before 48 h AgNP, Ag 62.5-125 μg/ml), “significantly decreased cytotoxicity”. Further, in data set [5], the “basal ROS after NAC treatment” value is listed as “partially mitigate some of the basal ROS”.
For the molecule `C/C=C(/C)C(=O)O[C@H]1C(C)=C2[C@H]([C@@H]1OC(=O)CCCCCCC)[C@@](C)(OC(C)=O)C[C@H](OC(=O)CCC)[C@@]1(O)[C@H]2OC(=O)[C@@]1(C)O` [thapsigargin, Thapsigargin], the “phosphorylation of eIF2α (p-eIF2α)” value in data set [3] (MDA-MB-231, 1 μM) is given as “increase in phosphorylation of the downstream effector, eIF2α”.

Values taken from US20210186888A1, “NANOPARTICLE COMPOSITIONS FOR CANCER TREATMENT” (priority 2017, published 2021).
